Test results as given in patent US11116710B2, “Antimicrobial compositions” (SYMRISE AG, priority 2016, dated 2021).
Values after ≈ are worked out from the molar mass of the structure shown.

Legend:
Aspergillus brasiliensis = assay: Minimum inhibitory concentration (MIC) according to DIN 58940; format: cell-based; settings: for MIC: Aspergillus brasiliensis, read-out: MIC values (ppm) Aspergillus brasiliensis
Protocol: (§1) The invention will be further described in the following on the basis of examples. The examples serve to illustrate the invention, without thereby restricting the scope of protection of the claims. For examples, 1 to 11 preservative challenge tests according to European Pharmacopoeia 7.0 (5.1.3. Efficacy of antimicrobial preservation) were used. For example 12, activities were determined by measuring minimum inhibitory concentrations (MIC values) according to DIN 58940. All numerical information relates to weight, unless stated otherwise.
(§2) The activity of Benzoic acid-3-hydroxypropylester (BAHP), Furoic acid-3-hydroxypropylester (FAHP) and Anisic acid-3-hydroxypropylester (AAHP), Salicylic acid hydroxyethyl ester (SAHE) and Salicylic acid hydroxypropyl ester (SAHP) was determined against the microorganisms Staphylococcus aureus, Candida albicans, Aspergillus brasiliensis, Pseudomonas aeruginosa and Escherichia coli. The activity of N-Methylsalicylamid (MSA), Furoic acid methylester (FAME) and Salicylamide (SA) was determined against the microorganism Aspergillus brasiliensis.

[1] = tested on: spores of A. brasiliensis; assay: Preservative challenge test (European Pharmacopoeia 7.0, 5.1.3) in anionic emulsion with Dracorin CE; format: cell-based, Aspergillus brasiliensis
Protocol: as §1
(§3) Activity of Benzoic acid-3-hydroxypropylester (BAHP) against the microorganisms E. coli, P. aeruginosa, S. aureus, C. albicans and spores of A. brasiliensis was evaluated in an anionic emulsion with Dracorin CE as emulsifier. The pH value of the emulsion was 5.5.
(§4) Activity of Furoic acid-3-hydroxypropylester (FAHP) against the microorganisms E. coli, P. aeruginosa, S. aureus, C. albicans and spores of A. brasiliensis was evaluated in an anionic emulsion with Dracorin CE as emulsifier. The pH value of the emulsion was 5.5.
(§5) Activity of Anisic acid-3-hydroxypropylester (AAHP) against the microorganisms E. coli, P. aeruginosa, S. aureus, C. albicans and spores of A. brasiliensis was evaluated in an anionic emulsion with Dracorin CE as emulsifier. The pH value of the emulsion was 5.5.
Activity of N-Methylsalicylamid (MSA) against the microorganism A. brasiliensis was evaluated in an anionic emulsion with Dracorin CE as emulsifier. The pH value of the emulsion was 5.5.
Activity of Furoic acid methylester (FAME) against the microorganism A. brasiliensis was evaluated in an anionic emulsion with Dracorin CE as emulsifier. The pH value of the emulsion was 5.5.
Activity of Salicylamide (SA) against the microorganism A. brasiliensis was evaluated in an anionic emulsion with Dracorin CE as emulsifier. The pH value of the emulsion was 5.5.
Activity of Salicylic acid hydroxyethyl ester (SAHE) against the microorganism A. brasiliensis was evaluated in an anionic emulsion with Dracorin CE as emulsifier. The pH value of the emulsion was 5.5.
Activity of Salicylic acid hydroxypropyl ester (SAHP) against the microorganism A. brasiliensis was evaluated in an anionic emulsion with Dracorin CE as emulsifier. The pH value of the emulsion was 5.5.
Activity of Benzoic acid-3-hydroxypropylester (BAHP) against spores of A. brasiliensis was evaluated in an anionic emulsion with Dracorin CE as emulsifier. The pH value of the emulsion was 7.
Activity of Anisic acid-3-hydroxypropylester (AAHP) against spores of A. brasiliensis was evaluated in an anionic emulsion with Dracorin CE as emulsifier. The pH value of the emulsion was 7. […]

S. aureus = assay: as above; format: cell-based, Staphylococcus aureus; settings: pH 5.5
Protocol: as §1, §3, §4, §5
as §3, with “Synergistic effects between” for “Activity of”, “(BAHP) and 1,2-Octanediol were determined. Activity of BAHP, 1,2-Octanediol and the combination of BAHP and 1,2-Octanediol” for “(BAHP)”

P. aeruginosa = assay: as above; format: cell-based, Pseudomonas aeruginosa; settings: pH 5.5
Protocol: as §1, §3, §4, §5
as §3, with “Synergistic effects between” for “Activity of”, “(BAHP) and 1,2-Octanediol were determined. Activity of BAHP, 1,2-Octanediol and the combination of BAHP and 1,2-Octanediol” for “(BAHP)”

Staphylococcus aureus = assay: Minimum inhibitory concentration (MIC) according to DIN 58940; format: cell-based
Protocol: as §1, §2

Escherichia coli = assay: as above; format: cell-based
Protocol: as §1, §2

Candida albicans = assay: as above; format: cell-based; settings: DIN 58940
Protocol: as §1, §2

Pseudomonas aeruginosa = assay: as above; format: cell-based
Protocol: as §1, §2

C. albicans = assay: Preservative challenge test (European Pharmacopoeia 7.0, 5.1.3) in anionic emulsion with Dracorin CE; format: cell-based, Candida albicans; settings: pH 5.5
Protocol: as §1, §3, §4, §5
as §3, with “Synergistic effects between” for “Activity of”, “(BAHP) and 1,2-Octanediol were determined. Activity of BAHP, 1,2-Octanediol and the combination of BAHP and 1,2-Octanediol” for “(BAHP)”

E. coli = assay: as above; format: cell-based, Escherichia coli; settings: pH 5.5
Protocol: as §1, §3, §4, §5
as §3, with “Synergistic effects between” for “Activity of”, “(BAHP) and 1,2-Octanediol were determined. Activity of BAHP, 1,2-Octanediol and the combination of BAHP and 1,2-Octanediol” for “(BAHP)”

[2] = day 14, 1.0% in anionic emulsion, pH 5.5
[3] = day 28, 1.0% in anionic emulsion, pH 5.5
[4] = day 2, 1.0% in anionic emulsion
[5] = day 7, 1.0% in anionic emulsion
[6] = day 14, 1.0% in anionic emulsion
[7] = day 28, 1.0% in anionic emulsion
[8] = day 7, 1.0% in anionic emulsion, pH 5.5

SMILES	MIC (Aspergillus brasiliensis) [µg/mL]	Colony counts (cfu/g formulation) [1, 2] [cfu/g formulation]	Colony counts (cfu/g formulation) [1, 3] [cfu/g formulation]	Colony counts (cfu/g formulation) (S. aureus; [4])	Colony counts (cfu/g formulation) (S. aureus; [5])	Colony counts (cfu/g formulation) (S. aureus; [6])	Colony counts (cfu/g formulation) (S. aureus; [7])	Colony counts (cfu/g formulation) (P. aeruginosa; [4])	Colony counts (cfu/g formulation) (P. aeruginosa; [5])	Colony counts (cfu/g formulation) (P. aeruginosa; [6])	Colony counts (cfu/g formulation) (P. aeruginosa; [7])	MIC values (ppm) Staphylococcus aureus (Staphylococcus aureus) [ppm]	MIC values (ppm) Escherichia coli (Escherichia coli) [ppm]	MIC values (ppm) Candida aibicans (Candida albicans) [ppm]	MIC values (ppm) Pseudomonas aeruginosa (Pseudomonas aeruginosa) [ppm]	MIC values (ppm) Aspergillus brasiliensis (Aspergillus brasiliensis) [ppm]	Colony counts (cfu/g formulation) [1, 8] [cfu/g formulation]	Colony counts (cfu/g formulation) (C. albicans; [6])	Colony counts (cfu/g formulation) (C. albicans; [7])	Colony counts (cfu/g formulation) (E. coli; [4])	other results
NC(=O)c1ccccc1O [SA, Salicylamide]	2500 (≈ 18.2 mM)	2.0E+03	<10																		
COc1ccc(C(=O)OCCCO)cc1 [AAHP, Anisic acid-3-hydroxypropylester]		<10	<10	<10	<10	<10	<10	<10	<10	<10	<10	5000	2500	2500	>5000	1000	<10	<10	<10	<10	Colony counts (cfu/g formulation) ([1]; day 7, 1.0% in anionic emulsion, pH 7): <10 cfu/g formulation; Colony counts (cfu/g formulation) ([1]; day 14, 1.0% in anionic emulsion, pH 7): <10 cfu/g formulation; Colony counts (cfu/g formulation) ([1]; day 28, 1.0% in anionic emulsion, pH 7): <10 cfu/g formulation; Colony counts (cfu/g formulation) (C. albicans; [4]): <10 cfu/g formulation; Colony counts (cfu/g formulation) (C. albicans; [5]): <10 cfu/g formulation; Colony counts (cfu/g formulation) (E. coli; [5]): <10 cfu/g formulation; Colony counts (cfu/g formulation) (E. coli; [6]): <10 cfu/g formulation; Colony counts (cfu/g formulation) (E. coli; [7]): <10 cfu/g formulation
CNC(=O)c1ccccc1O [MSA, N-Methylsalicylamid]	1000 (≈ 6.62 mM)	<10	<10														<10				
O=C(OCCCO)c1ccco1 [FAHP, Furoic acid-3-hydroxypropylester]				<10	<10	<10	<10	<10	<10	<10	<10	>5000	>5000	>5000	>5000	5000		<10	<10	<10	Colony counts (cfu/g formulation) (E. coli; [5]): <10 cfu/g formulation; Colony counts (cfu/g formulation) (E. coli; [6]): <10 cfu/g formulation; Colony counts (cfu/g formulation) (E. coli; [7]): <10 cfu/g formulation
